{"source": "paper PMC6657668", "about": "“Porcine Beta-Defensin 2 Provides Protection Against Bacterial Infection by a Direct Bactericidal Activity and Alleviates Inflammation via Interference With the TLR4/NF-κB Pathway” (Frontiers in Immunology, 2019)", "molecules": {"B1": {"name": "Porcine beta-defensin 2 (PBD-2), synthetic mature peptide (peptide)", "peptide": "DHYICAKKGGTCNFSPCPLFNRIEGTCYSGKAKCCIR", "modifications": "ends and bridges not checked; cysteine pairing not given here", "notes": "mature peptide of porcine beta-defensin 2 (PBD-2), pig; also called synthetic PBD-2; source: synthetic peptide (Neweast Biosciences, # 60001)"}}, "key": {"[1]": {"conditions": "cited from earlier work", "from_the_text": "(§1) The antibiotic resistance of pathogenic bacteria has become a global threat ([30]). Defensins are natural peptides secreted by many species and implicated in resisting bacterial infection ([31]). PBD-2 is one of the defensins expressed in pigs. […] The invasion of S. Typhimurium can increase the expression of PBD-2 in porcine epithelial cells ([32]). […] PBD-2 also improves the growth perf ..."}, "RAW 264.7 cells": {"test_system": "RAW 264.7 cells", "test": "Cytokine levels of RAW 264.7 cells after treatment with LPS (ELISA), with or without pathway inhibitor", "assay_type": "cell-based, mouse", "conditions": "1 h pre-treatment, LPS 1 μg/ml, 16 h, n = 6", "protocol": "RAW 264.7 cells and RAW 264.7 cells stably expressing PBD-2 were pre-treated with S. Typhimurium at MOI = 10:1 for 1 h or with LPS (1 μg/ml) for 16 h, washed with PBS twice and incubated with RPMI 1640 that contained PBS or PBD-2 (10 μg/mL) for 16 h. RAW 264.7 cells stably expressing PBD-2 were maintained in RPMI 1640 that contained PBS for 16 h (n = 6 for each group). The expression levels of proinflammatory cytokines in the cell culture supernatant were determined through ELISA in accordance with the manufacturer's instruction.\nIn the inhibition assay, RAW 264.7 cells were pre-treated with 4 μg/ml NF-κB inhibitor (Celastrol, # ant-cls, InvivoGen®, San Diego, CA, USA) or 1 μg/ml TLR4 inhibitor (CLI-095, # tlrl-cli95, InvivoGen®, San Diego, CA, USA) for 1 h. Subsequently, RAW 264.7 cells were treated with LPS (1 μg/ml) alone or together with PBD-2 (10 μg/mL) for 16 h (n = 6 each group). RAW 264.7 cells treated with PBS were used as control. The levels of the cytokines in the supernatant of the cells were detected through ELISA."}, "[2]": {"test_system": "intestinal epithelial cells", "conditions": "cells transfected with genes encoding hBD-2 and hBD-3, infected with S. Typhimurium; vs untransfected; ref [44]; cited from earlier work", "from_the_text": "The colitis caused by S. Typhimurium mainly results from intestinal mucosal inflammation after the breakage of intestinal epithelial barrier by pathogens ([26])."}, "NF-κB": {"test_system": "NF-κB", "test": "NF-κB promoter activity, luciferase reporter assay in RAW 264.7 cells", "assay_type": "cell-based, mouse", "conditions": "CLI-095 1 μg/ml, 1 h pre-treatment; LPS 1 μg/ml, 24 h; n = 6", "protocol": "A luciferase reporter assay was used to detect the promoter activity of NF-κB. RAW 264.7 cells were seeded in a 24-well plate for 24 h and then cotransfected with 800 ng/well of the NF-κB reporter plasmid (pGL3-Basic) and 20 ng/well of pLR-TK. WT […] luciferase (Rluc) served as the reporter gene control vector. […] In the inhibition assay, the cells were pre-treated with 1 μg/ml TLR4 inhibitor for 1 h and treated with LPS (1 μg/ml) alone or together with PBD-2 (10 μg/mL) for 24 h (n = 6 each group). Luciferase units were detected to show the promoter activity of NF-κB ([28])."}, "[3]": {"test_system": "release of inflammatory cytokines", "conditions": "cited from earlier work", "from_the_text": "Bacterial drug resistance has become a global concern. Endeavors in search for antibiotic substitutes are desperately needed. Antimicrobial peptides (AMPs) are natural anti-infective agents identified in various species and implicated in innate immunity ([1]). […] AMPs not only have a direct bactericidal activity but also regulate immune and inflammatory responses ([3]). As bactericides, cationic AMPs exert bactericidal act ... || The colitis caused by S. Typhimurium mainly results from intestinal mucosal inflammation after the breakage of intestinal epithelial barrier by pathogens ([26])."}, "[4]": {"conditions": "cited from earlier work", "from_the_text": "(§2) The mechanism of how AMPs modulate immune signaling pathways has yet to be fully understood. […] Instead, it interacted with TLR4. […] Therefore, th ...", "remark": "listed apart in the source"}, "TLR1": {"test_system": "TLR1", "conditions": "ref [50]; cited from earlier work", "from_the_text": "as §2"}, "TLR2": {"test_system": "TLR2", "conditions": "ref [50]; cited from earlier work", "from_the_text": "as §2"}, "[5]": {"test_system": "signaling pathways downstream of TLR4", "conditions": "MyD88-dependent and MyD88-independent pathways; ref [50]; cited from earlier work", "from_the_text": "as §2"}, "Bordetella pertussis": {"test_system": "Bordetella pertussis", "conditions": "pigs; ref [35]; cited from earlier work", "from_the_text": "as §1"}, "TLR3": {"test_system": "TLR3", "conditions": "TLR3 ligand poly (I:C); ref [6]; cited from earlier work", "from_the_text": "as §2"}, "[6]": {"target": "T1, TLR4, purified recombinant protein (Cloud-clone # RPA753Mu01) (UniProt Q9QUK6 26-638)", "T1 construct": "Toll-like receptor 4 (TLR4), bought recombinant protein; the vendor's data sheet is needed; also called purified TLR4; source: bought: Cloud-clone (# RPA753Mu01)", "T1 sequence (looked up)": "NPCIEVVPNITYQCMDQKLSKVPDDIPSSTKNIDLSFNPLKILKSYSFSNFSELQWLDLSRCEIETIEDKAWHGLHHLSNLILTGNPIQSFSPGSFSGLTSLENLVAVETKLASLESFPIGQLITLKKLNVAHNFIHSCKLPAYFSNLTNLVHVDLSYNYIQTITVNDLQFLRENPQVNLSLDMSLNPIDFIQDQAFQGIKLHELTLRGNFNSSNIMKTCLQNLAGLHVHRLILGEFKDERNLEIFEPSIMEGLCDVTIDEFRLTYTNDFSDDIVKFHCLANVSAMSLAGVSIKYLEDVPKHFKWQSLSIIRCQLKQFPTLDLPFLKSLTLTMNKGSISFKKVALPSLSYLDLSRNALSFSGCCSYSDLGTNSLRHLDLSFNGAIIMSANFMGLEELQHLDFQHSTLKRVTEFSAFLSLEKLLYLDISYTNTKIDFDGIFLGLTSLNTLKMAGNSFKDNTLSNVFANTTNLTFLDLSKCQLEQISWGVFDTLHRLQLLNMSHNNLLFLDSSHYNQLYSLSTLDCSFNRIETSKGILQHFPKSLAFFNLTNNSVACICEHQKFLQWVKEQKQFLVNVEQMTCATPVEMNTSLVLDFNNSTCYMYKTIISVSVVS", "test": "ITC; Nano-ITC, 25°C; PBD-2 in the syringe (0.215 mM), TLR4 in the calorimeter cell (0.016 to 0.050 mM); control: PBD-2 into PBS", "conditions": "both partners purified"}}, "note": "Like-named read-outs stand apart in the source and are kept apart here. Where no end group is shown, it is not given here.", "data": [{"molecule": "hBD-1: β-defensin of human (DHYNCVSSGGQCLYSACPIFTKIQGTCYRGKAKCCK; ends and bridges not checked; cysteine pairing not given here; UniProt P60022 33-68, looked up)", "values": [{"measurement": "antibacterial effects in vivo", "setting": "[1]; ref [36]", "value": "have antibacterial effects in vivo"}]}, {"molecule": "CC1=C(O)C(=O)C=C2C1=CC=C1[C@@]2(C)CC[C@@]2(C)[C@@H]3C[C@](C)(C(=O)O)CC[C@]3(C)CC[C@]12C", "note": "[NF-κB inhibitor, Celastrol, reference compound]", "values": [{"measurement": "secretion of IL-1β triggered by LPS", "setting": "RAW 264.7 cells; Celastrol 4 μg/ml", "value": "significantly reduced the secretion of TNF-α, IL-6, and IL-1β triggered by LPS"}, {"measurement": "secretion of IL-6 triggered by LPS", "setting": "RAW 264.7 cells; Celastrol 4 μg/ml", "value": "significantly reduced the secretion of TNF-α, IL-6, and IL-1β triggered by LPS"}, {"measurement": "secretion of TNF-α triggered by LPS", "setting": "RAW 264.7 cells; Celastrol 4 μg/ml", "value": "significantly reduced the secretion of TNF-α, IL-6, and IL-1β triggered by LPS"}]}, {"molecule": "hBD-2: β-defensin of human (GIGDPVTCLKSGAICHPVFCPRRYKQIGTCGLPGTKCCKKP; ends and bridges not checked; cysteine pairing not given here; UniProt O15263 24-64, looked up)", "values": [{"measurement": "antibacterial effects in vivo", "setting": "[1]; ref [36]", "value": "have antibacterial effects in vivo"}, {"measurement": "expression level of proinflammatory cytokines", "setting": "[2]", "value": "decreased expression level of proinflammatory cytokines"}]}, {"molecule": "CCOC(=O)C1=CCCC[C@H]1S(=O)(=O)Nc1ccc(F)cc1Cl", "note": "[TLR4 inhibitor, reference compound]", "values": [{"measurement": "secretion of IL-1β triggered by LPS", "setting": "RAW 264.7 cells; CLI-095 1 μg/ml", "value": "significantly reduced the secretion of TNF-α, IL-6, and IL-1β triggered by LPS"}, {"measurement": "secretion of IL-6 triggered by LPS", "setting": "RAW 264.7 cells; CLI-095 1 μg/ml", "value": "significantly reduced the secretion of TNF-α, IL-6, and IL-1β triggered by LPS"}, {"measurement": "secretion of TNF-α triggered by LPS", "setting": "RAW 264.7 cells; CLI-095 1 μg/ml", "value": "significantly reduced the secretion of TNF-α, IL-6, and IL-1β triggered by LPS"}, {"measurement": "LPS-induced NF-κB promoter activity, TLR4 inhibitor", "setting": "NF-κB", "value": "inhibited the LPS-induced promoter activity of NF-κB in RAW 264.7"}]}, {"molecule": "hBD3: human β-defensin 3 (GIINTLQKYYCRVRGGRCAVLSCLPKEEQIGKCSTRGRKCCRRKK; ends and bridges not checked; cysteine pairing not given here; UniProt P81534 23-67, looked up)", "values": [{"measurement": "suppression of inflammation", "setting": "[3]; ref [7]", "value": "can suppress inflammation by inhibiting specific inflammatory signaling pathways"}, {"measurement": "TNF-α and IL-6 secretion", "setting": "[3]; ref [43]", "value": "suppressing TNF-α and IL-6 secretion"}, {"measurement": "expression level of proinflammatory cytokines", "setting": "[2]", "value": "decreased expression level of proinflammatory cytokines"}, {"measurement": "binding to LPS", "setting": "[4]; ref [50]", "value": "does not bind to LPS"}, {"measurement": "interaction with TLR1", "setting": "TLR1", "value": "can interact with TLR1 and TLR2, leading to the activation of the MyD88-dependent pathway"}, {"measurement": "interaction with TLR2", "setting": "TLR2", "value": "can interact with TLR1 and TLR2, leading to the activation of the MyD88-dependent pathway"}, {"measurement": "LPS-induced inflammation", "setting": "[5]", "value": "could inhibit the LPS-induced inflammation by repressing the signaling pathways downstream of TLR4"}]}, {"molecule": "Porcine beta-defensin 1: another defensin from pigs and homolog of human beta-defensin 2 (NIGNSVSCLRNKGVCMPGKCAPKMKQIGTCGMPQVKCCKRK; ends and bridges not checked; cysteine pairing not given here; UniProt O62697 24-64, looked up)", "values": [{"measurement": "protection against Bordetella pertussis infection", "setting": "Bordetella pertussis", "value": "protects against Bordetella pertussis infection in pigs"}]}, {"molecule": "LL-37: human AMP (LLGDFFRKSKEKIGKEFKRIVQRIKDFLRNLVPRTES; Antibacterial peptide LL-37; UniProt P49913 134-170, looked up)", "values": [{"measurement": "release of inflammatory cytokines", "setting": "[3]; ref [5]", "value": "suppress the release of inflammatory cytokines"}, {"measurement": "suppression of inflammation", "setting": "[3]; ref [6]", "value": "can suppress inflammation by inhibiting specific inflammatory signaling pathways"}, {"measurement": "anti-endotoxin ability", "setting": "[4]; ref [48]", "value": "exert anti-endotoxin abilities by either disrupting LPS or inhibiting the LPS-induced production of TNF-α"}, {"measurement": "TLR3-dependent immune responses", "setting": "TLR3", "value": "TLR3-dependent immune responses are blocked by LL-37"}]}, {"molecule": "rMBD3: β-defensin 3 (rMBD3) of mice (KKINNPVSCLRKGGRCWNRCIGNTRQIGSCGVPFLKCCKRK; ends and bridges not checked; cysteine pairing not given here; UniProt Q9WTL0 23-63, looked up)", "values": [{"measurement": "antibacterial effects in vivo", "setting": "[1]; mice, ref [37]", "value": "have antibacterial effects in vivo"}]}, {"molecule": "PR39", "values": [{"measurement": "anti-endotoxin ability", "setting": "[4]; ref [49]", "value": "exert anti-endotoxin abilities by either disrupting LPS or inhibiting the LPS-induced production of TNF-α"}]}, {"molecule": "B1", "values": [{"measurement": "Kd", "setting": "[6]", "value": 3.75, "unit": "µM"}]}]}
